Data taken from patent US20050112573A1, “Method of detecting toxic substance” (priority 2001, published 2005).

System: yeast genes (level of expressed mRNA)
Experiment: DNA chip analysis of expressed mRNA of yeast genes after 2 h culture with a toxic chemical substance
Assay type: cell-based, Saccharomyces cerevisiae S288C
Description: Yeast (Saccharomyces cerevtisiae S288C (α SUC2mal mel gap2 CUP1)) were cultured at 25° C. on YPD medium (yeast extract 1%, polypepton 2%, glucose 2%). One of toxic chemical substances was added to the cell at logarithmic growth phase, and the cell was further cultured for two hours. Cell was cultured without any chemical substance in the same condition, and was used as control. Concentrations of the chemical substances were defined to inhibit the growth of the yeast but not lead to death.
After the completion of cultivation, the culture was centrifuged to collect the cells. To the cells, sodium acetate buffer (50 mM sodium acetate, 10 mM EDTA, 1% SDS) was added, and the mixture was shaken at 65° C. for five minutes, followed by returning to room temperature, and obtaining the supernatant, which procedure was repeated two times. To the supernatant, ½ amount of a solution of phenol/chloroform was added, and the mixture was centrifuged to give a supernatant, which was added with an equal amount of chloroform, and the mixture was centrifuged to give a supernatant. To the supernatant, an equal amount of isopropanol containing 0.3 M sodium acetate was added, and the mixture was allowed to stand at room temperature for 30 minutes, after which the mixture was centrifuged to give a sediment of the whole RNAs. Seventy % ethanol was added to the sediment, and the mixture was again centrifuged to give a sediment, which was then dried and dissolved in water. mRNA was isolated from the whole RNAs as followings. In view of the fact that a poly A chain is attached to the 3′ terminus of mRNA, a polynucleotide having a poly T structure which was immobilized on the surface of latex beads was used to trap the mRNA, and then the mRNA was washed and eluted with spine column (Oligotex-dT30<Super>mRNA Purification Kit, Takara). Reverse transcription of the mRNA was conducted with a reverse transcriptase (Super Script II Reverse Transcriptase; catalogue No. 18064-014, GibcoBRL) using fluorescence-labeled nucleotides to give cDNAs that were introduced with Cy3-dUTP or Cy5-dUTP during the reverse transcription.
The labeled cDNAs were dissolved in TE buffer (10 mM Tris-HCl/1 mM EDTA, pH8.0), and the solution was dropped on the DNA chip containing the whole genes of yeast (DNA Chip Research Inc. Japan) so that the cDNAs were hybridized on the DNA chip at 65° C. for over 12 hours. The fluoresces intensity of the DNA chip was read with a scanner, and the ratio relative to the fluorescence intensity resulting from the absence of chemical substance was estimated as the following, which is shown in Tables 1 to 9: [formula]
In the Tables, “Intensity” indicated in the rightmost column is a value of the level of expressed mRNA of each gene in control cells as divided by the average level of the expressions of the whole genes.

## COc1cc(CNC(=O)CCCCC=CC(C)C)ccc1O [(12), 8-methyl-N-vanillyl-6-nonenamide]
Gene YAL012W
  level of expressed mRNA in the presence of chemical substance/in its absence: 1.1
Gene YAL014C
  The level of expressed mRNA in the presence of chemical substance/absence: YAL014C: 1.2
Gene YAL017W
  The level of expressed mRNA in the presence of chemical substance/absence: YAL017W: 1.0
Gene YAL018C
  The level of expressed mRNA in the presence of chemical substance/absence: YAL018C: 0.9
Gene YAL038W
  level of expressed mRNA in the presence of chemical substance/in its absence: 1.2
Gene YAL044C
  level of expressed mRNA in the presence of chemical substance/in its absence: 0.6
Gene YAL049C
  The level of expressed mRNA in the presence of chemical substance/absence: YAL049C: 1.1
Gene YAL054C
  level of expressed mRNA in the presence of chemical substance/in its absence: 1.0
Gene YAR047C
  The level of expressed mRNA in the presence of chemical substance/absence: YAR047C: 0.9
Gene YAR064W
  The level of expressed mRNA in the presence of chemical substance/absence: YAR064W: 0.8
Gene YAR071W
  level of expressed mRNA in the presence of chemical substance/in its absence: 2.0
Gene YBL001C
  level of expressed mRNA in the presence of chemical substance/in its absence: 0.7
Gene YBL044W
  The level of expressed mRNA in the presence of chemical substance/absence: YBL044W: 0.9
Gene YBL100C
  The level of expressed mRNA in the presence of chemical substance/absence: YBL100C: 0.7
Gene YBR012C
  The level of expressed mRNA in the presence of chemical substance/absence: YBR012C: 1.0
Gene YBR013C
  The level of expressed mRNA in the presence of chemical substance/absence: YBR013C: 1.2
Gene YBR014C
  level of expressed mRNA in the presence of chemical substance/in its absence: 0.6
Gene YBR023C
  level of expressed mRNA in the presence of chemical substance/in its absence: 0.8
Gene YBR029C
  level of expressed mRNA in the presence of chemical substance/in its absence: 1.3
Gene YBR035C
  level of expressed mRNA in the presence of chemical substance/in its absence: 1.2
Gene YBR050C
  level of expressed mRNA in the presence of chemical substance/in its absence: 1.0
Gene YBR051W
  The level of expressed mRNA in the presence of chemical substance/absence: YBR051W: 0.7
Gene YBR063C
  The level of expressed mRNA in the presence of chemical substance/absence: YBR063C: 1.1
Gene YBR066C
  The level of expressed mRNA in the presence of chemical substance/absence: YBR066C: 0.7
Gene YBR068C
  level of expressed mRNA in the presence of chemical substance/in its absence: 0.8
Gene YBR111C
  level of expressed mRNA in the presence of chemical substance/in its absence: 1.2
Gene YBR124W
  The level of expressed mRNA in the presence of chemical substance/absence: YBR124W: 0.9
Gene YBR129C
  The level of expressed mRNA in the presence of chemical substance/absence: YBR129C: 1.0
Gene YBR145W
  level of expressed mRNA in the presence of chemical substance/in its absence: 1.0
Gene YBR162C
  The level of expressed mRNA in the presence of chemical substance/absence: YBR162C: 0.7
Gene YBR183W
  level of expressed mRNA in the presence of chemical substance/in its absence: 1.2
Gene YBR222C
  level of expressed mRNA in the presence of chemical substance/in its absence: 0.9
Gene YBR255W
  The level of expressed mRNA in the presence of chemical substance/absence: YBR255W: 0.7
Gene YBR281C
  The level of expressed mRNA in the presence of chemical substance/absence: YBR281C: 0.5
Gene YBR287W
  The level of expressed mRNA in the presence of chemical substance/absence: YBR287W: 1.2
Gene YBR299W
  level of expressed mRNA in the presence of chemical substance/in its absence: 1.2
Gene YCL009C
  level of expressed mRNA in the presence of chemical substance/in its absence: 1.7
Gene YCL044C
  The level of expressed mRNA in the presence of chemical substance/absence: YCL044C: 0.9
Gene YCL056C
  The level of expressed mRNA in the presence of chemical substance/absence: YCL056C: 1.0
Gene YCL064C
  level of expressed mRNA in the presence of chemical substance/in its absence: 0.7
Gene YCR007C
  The level of expressed mRNA in the presence of chemical substance/absence: YCR007C: 0.8
Gene YCR037C
  level of expressed mRNA in the presence of chemical substance/in its absence: 0.7
Gene YCR048W
  level of expressed mRNA in the presence of chemical substance/in its absence: 0.9
Gene YCR098C
  level of expressed mRNA in the presence of chemical substance/in its absence: 1.3
Gene YDL022W
  level of expressed mRNA in the presence of chemical substance/in its absence: 1.2
Gene YDL046W
  The level of expressed mRNA in the presence of chemical substance/absence: YDL046W: 1.0
Gene YDL089W
  The level of expressed mRNA in the presence of chemical substance/absence: YDL089W: 0.9
Gene YDL173W
  The level of expressed mRNA in the presence of chemical substance/absence: YDL173W: 1.1
Gene YDL193W
  The level of expressed mRNA in the presence of chemical substance/absence: YDL193W: 1.1
Gene YDL233W
  The level of expressed mRNA in the presence of chemical substance/absence: YDL233W: 0.9
Gene YDR009W
  level of expressed mRNA in the presence of chemical substance/in its absence: 1.0
Gene YDR019C
  level of expressed mRNA in the presence of chemical substance/in its absence: 0.7
Gene YDR071C
  The level of expressed mRNA in the presence of chemical substance/absence: YDR071C: 0.9
Gene YDR078C
  The level of expressed mRNA in the presence of chemical substance/absence: YDR078C: 0.7
Gene YDR090C
  The level of expressed mRNA in the presence of chemical substance/absence: YDR090C: 0.6
Gene YDR109C
  The level of expressed mRNA in the presence of chemical substance/absence: YDR109C: 1.0
Gene YDR128W
  The level of expressed mRNA in the presence of chemical substance/absence: YDR128W: 0.6
